Experimental data: PubChem BioAssay AID248 (DTP/NCI, 2004)
“And” between values parts separate entries of the source, which are not always exact repeats. Equal values may be shown once. Toxic doses and inconclusive results are not listed. Rule as the data show it: active = T/C of 150% or more; inactive = T/C below 125%.

Tested on: L1210 leukemia ip in BDF1 mice, survival T/C
Assay: NCI In Vivo Anticancer Drug Screen. Data for tumor model L1210 Leukemia (intraperitoneal) in B6D2F1 (BDF1) mice
Details: endpoint: mean survival time, higher = longer survival
Method in brief: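 Value reflects the ratio of survival in compound-treated mice to survival in vehicle-treated controls, with both groups carrying the same transplanted tumor.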

[1] = dose: 100.0 mg/kg/injection, schedule: Q01DX009 (ip), vehicle: saline with Tween-80
[2] = dose: 100.0 mg/kg/injection, schedule: Q01DX001 (ip), vehicle: saline
[3] = dose: 200.0 mg/kg/injection, schedule: Q01DX009 (ip), vehicle: saline with Tween-80
[4] = dose: 400.0 mg/kg/injection, schedule: Q01DX009 (ip), vehicle: saline with Tween-80
[5] = dose: 75.0 mg/kg/injection, schedule: Q01DX001 (ip), vehicle: saline
[6] = dose: 150.0 mg/kg/injection, schedule: Q01DX001 (ip), vehicle: saline
[7] = dose: 50.0 mg/kg/injection, schedule: Q04DX002 (ip), vehicle: Klucel (hydroxypropylcellulose) (HPC)
[8] = dose: 100.0 mg/kg/injection, schedule: Q04DX002 (ip), vehicle: Klucel (hydroxypropylcellulose) (HPC)
[9] = dose: 200.0 mg/kg/injection, schedule: Q04DX002 (ip), vehicle: Klucel (hydroxypropylcellulose) (HPC)
[10] = dose: 100.0 mg/kg/injection, schedule: Q04DX003 (ip), vehicle: saline
[11] = dose: 200.0 mg/kg/injection, schedule: Q04DX003 (ip), vehicle: saline
[12] = dose: 400.0 mg/kg/injection, schedule: Q04DX003 (ip), vehicle: saline
[13] = dose: 100.0 mg/kg/injection, schedule: Q01DX001 (ip), vehicle: Klucel (hydroxypropylcellulose) (HPC)
[14] = dose: 200.0 mg/kg/injection, schedule: Q01DX001 (ip), vehicle: Klucel (hydroxypropylcellulose) (HPC)
[15] = dose: 400.0 mg/kg/injection, schedule: Q01DX001 (ip), vehicle: Klucel (hydroxypropylcellulose) (HPC)
[16] = dose: 100.0 mg/kg/injection, schedule: Q01DX009 (ip), vehicle: Klucel (hydroxypropylcellulose) (HPC)

Measured: T/C

Cc1ccc(N2CCN(C3=CCC(C(C)C)CC3)CC2)cc1Cl (stereo not given)
inactive: [1] 106 % of control

O=C(Nc1cccc2ccccc12)C(F)(F)F
inactive: [2] 93 % of control | [1] 98 % of control | dose: 100.0 mg/kg/injection, schedule: Q04DX003 (ip), vehicle: saline with Tween-80 90 % of control | [3] 104 % of control | dose: 200.0 mg/kg/injection, schedule: Q04DX003 (ip), vehicle: saline with Tween-80 95 % of control | [4] 98 % of control | dose: 400.0 mg/kg/injection, schedule: Q04DX003 (ip), vehicle: saline with Tween-80 93 % of control

CCCCNc1ccc(C(=O)OCCNC2CCCCC2)cc1
inactive: [5] 100 % of control | [6] 96 % of control

NCCc1cnc[nH]1
inactive: dose: 50.0 mg/kg/injection, schedule: Q01DX009 (ip), vehicle: saline 89 % of control | dose: 100.0 mg/kg/injection, schedule: Q01DX009 (ip), vehicle: saline 106 % of control | dose: 200.0 mg/kg/injection, schedule: Q01DX009 (ip), vehicle: saline 89 % of control

CC(=O)NC1CCc2ccccc21 (stereo not given)
inactive: [7] 102 % of control | [8] 105 % of control | [9] 118 % of control

O=C(Nc1cccc(C(F)(F)F)c1)c1ccc(Cl)c(Cl)c1
inactive: dose: 100.0 mg/kg/injection, schedule: Q01DX009 (ip), vehicle: gum acacia 108 % of control | dose: 100.0 mg/kg/injection, schedule: Q04DX003 (ip), vehicle: gum acacia 100 % of control | dose: 200.0 mg/kg/injection, schedule: Q04DX003 (ip), vehicle: gum acacia 100 % of control | dose: 400.0 mg/kg/injection, schedule: Q01DX009 (ip), vehicle: gum acacia 96 % of control | dose: 400.0 mg/kg/injection, schedule: Q04DX003 (ip), vehicle: gum acacia 95 % of control

COc1ccc(OC)c(/C=N/NC(=O)CCCCCCCCC(=O)N/N=C/c2cc(OC)ccc2OC)c1
inactive: dose: 100.0 mg/kg/injection, schedule: Q01DX001 (ip), vehicle: saline with Tween-80 90 % of control | [1] 101 % of control and 106 % of control | dose: 100.0 mg/kg/injection, schedule: Q04DX002 (ip), vehicle: saline with Tween-80 94 % of control and 108 % of control | [10] 92 % of control | dose: 200.0 mg/kg/injection, schedule: Q01DX001 (ip), vehicle: saline with Tween-80 92 % of control | [3] 97 % of control and 90 % of control | dose: 200.0 mg/kg/injection, schedule: Q04DX002 (ip), vehicle: saline with Tween-80 95 % of control and 90 % of control | [11] 92 % of control | dose: 400.0 mg/kg/injection, schedule: Q01DX001 (ip), vehicle: saline with Tween-80 87 % of control | [4] 94 % of control | dose: 400.0 mg/kg/injection, schedule: Q04DX002 (ip), vehicle: saline with Tween-80 86 % of control | [12] 87 % of control

O=C(O)CCCCCCCCC(=O)c1cc(O)ccc1O
inactive: [13] 94 % of control | [14] 94 % of control | [15] 106 % of control

[O-]c1c[n+](-c2ccc(Cl)cc2Cl)no1
inactive: [7] 100 % of control | [16] 100 % of control | [8] 106 % of control | [9] 103 % of control

CC(C)c1cc(O)ccc1O
inactive: dose: 100.0 mg/kg/injection, schedule: Q01DX001 (ip), vehicle: other 102 % of control | dose: 200.0 mg/kg/injection, schedule: Q01DX001 (ip), vehicle: other 94 % of control

CCOC(=O)c1ccc(C)cc1Nc1ccccc1C(F)(F)F
inactive: dose: 100.0 mg/kg/injection, schedule: Q04DX003 (ip), vehicle: Klucel (hydroxypropylcellulose) (HPC) 90 % of control | dose: 200.0 mg/kg/injection, schedule: Q04DX003 (ip), vehicle: Klucel (hydroxypropylcellulose) (HPC) 94 % of control | dose: 400.0 mg/kg/injection, schedule: Q04DX003 (ip), vehicle: Klucel (hydroxypropylcellulose) (HPC) 95 % of control

CN1CCC(Br)(C(=O)c2ccccc2)CC1
inactive: [5] 101 % of control | [6] 93 % of control

CCOC(=O)C(C#N)(CC/C(C)=N/Nc1ccc([N+](=O)[O-])cc1[N+](=O)[O-])C(C)COC(C)=O (stereo not given)
inactive: [13] 94 % of control | [14] 91 % of control | [15] 102 % of control

C=C(NC(=O)C(=C)NC(=O)c1csc(C2=NC3c4csc(n4)C4NC(=O)c5csc(n5)C(C(C)(O)C(C)O)NC(=O)C5CSC(=N5)/C(=C/C)NC(=O)C(C(C)O)NC(=O)c5csc(n5)C3(CC2)NC(=O)C(C)NC(=O)C(=C)NC(=O)C(=C)NC(=O)C(C(C)C)NC2C=Cc3c(C(C)O)cc(nc3C2O)C(=O)OC4C)n1)C(N)=O (stereo not given)
inactive: dose: 3.12 mg/kg/injection, schedule: Q01DX009 (ip), vehicle: saline 101 % of control | dose: 6.25 mg/kg/injection, schedule: Q01DX009 (ip), vehicle: saline 117 % of control

CC(=O)[C@@]1(O)CC[C@H]2[C@@H]3C[C@H](C)C4=CC(=O)CC[C@]4(C)[C@H]3[C@@H](O)C[C@@]21C
inactive: dose: 12.5 mg/kg/injection, schedule: Q04DX002 (ip), vehicle: Klucel (hydroxypropylcellulose) (HPC) 102 % of control | dose: 25.0 mg/kg/injection, schedule: Q04DX002 (ip), vehicle: Klucel (hydroxypropylcellulose) (HPC) 105 % of control | [7] 112 % of control | [2] 104 % of control | dose: 100.0 mg/kg/injection, schedule: Q01DX009 (ip), vehicle: acetone 97 % of control | [10] 104 % of control | dose: 200.0 mg/kg/injection, schedule: Q01DX001 (ip), vehicle: saline 100 % of control | dose: 200.0 mg/kg/injection, schedule: Q01DX009 (ip), vehicle: acetone 92 % of control | [11] 102 % of control | dose: 400.0 mg/kg/injection, schedule: Q01DX001 (ip), vehicle: saline 91 % of control | dose: 400.0 mg/kg/injection, schedule: Q01DX009 (ip), vehicle: acetone 97 % of control | [12] 95 % of control

Cc1cc([N+](=O)[O-])c(N/N=C/c2ccccc2Cl)c([N+](=O)[O-])c1
inactive: [16] 101 % of control | dose: 200.0 mg/kg/injection, schedule: Q01DX009 (ip), vehicle: Klucel (hydroxypropylcellulose) (HPC) 95 % of control | dose: 400.0 mg/kg/injection, schedule: Q01DX009 (ip), vehicle: Klucel (hydroxypropylcellulose) (HPC) 95 % of control

O=S(=O)(F)c1c(Cl)cccc1C[P+](c1ccccc1)(c1ccccc1)c1ccccc1
inactive: dose: 6.25 mg/kg/injection, schedule: Q01DX001 (ip), vehicle: saline with Tween-80 99 % of control | dose: 12.5 mg/kg/injection, schedule: Q01DX001 (ip), vehicle: saline with Tween-80 100 % of control | dose: 25.0 mg/kg/injection, schedule: Q01DX001 (ip), vehicle: saline 105 % of control

Brc1cccc2c1C[n+]1ccccc1-2
inactive: [5] 96 % of control | [6] 92 % of control

CCCCS/C=C\SCCCC
inactive: dose: 100.0 mg/kg/injection, schedule: Q04DX002 (sc), vehicle: olive oil, sesame oil, peanut oil 107 % of control | dose: 200.0 mg/kg/injection, schedule: Q04DX002 (sc), vehicle: olive oil, sesame oil, peanut oil 104 % of control | dose: 400.0 mg/kg/injection, schedule: Q04DX002 (sc), vehicle: olive oil, sesame oil, peanut oil 104 % of control
